Here are results for two compounds from patent publication US6927401B1, “Method of characterizing fluorescent molecules or other particles using generating functions” (Evotec OAI AG, priority 1999, dated 2005).

Experiment [1] relates to monoclonal antibody exposed on the surface of hybridoma cell line HB-8152.
Experimental: The cell number of a confluent hybridoma culture was determined to be 1.6×10^6 per ml and aliquotes with approx. 0.5×10^6 hybridoma cells in 100 μl were used for each single experiment. The cells were washed in 100 μl phosphate buffered saline (PBS) buffer for 5 minutes to remove soluble antibody from the assay. Subsequently, the cells were incubated for 30 minutes in 100 μl PBS containing the theophylline-TAMRA conjugate at different concentrations: 0, 0.4, 2, 8, 16, 40, 200, 800 nM. […] The degree of fluorescence labelling of the hybridoma cells was determined for each single experiment in four independent measurements.
A further experiment has as its target T1, EGF receptor (Homo sapiens, UniProt P00533).
T1 construct: endogenous in cells; host or cells: HCT (human colon carcinoma tumor) cells, crude membranes
Put plainly: FIDA competition assay, HCT membranes with TMR-EGF and competitor. To be noted: binding normalized to absence of competitor, read-out: affinity (competition with TMR-EGF).

Experimental for EGF receptor: Binding was determined by the method according to the present invention and was normalized to that in the absence of competitor.

As usually defined, the IC50 is the concentration needed to halve the response being measured. A lower IC50 goes with higher potency. Regarding `Cn1c(=O)c2[nH]cnc2n(C)c1=O` [theophylline, 1,3-dimethylxanthine], in experiment [1], the 50% inhibitory concentration (IC50) was determined as 250 nM.
“betacellulin: polypeptide growth factor with sequence identity with EGF, from R & D Systems”: the Ki in the experiment with EGF receptor came to 0.23 ± 0.02 nM.
